pIC50, pKi: −log10 of the molar value. ≈ marks a conversion by molar mass, not a printed value.

In one series the target is T1, hα4 and β1 integrins (Homo sapiens, UniProt P05556+P13612).
T1 construct: expressed in transfected cells; host or cells: CHO cells
Briefly: In vitro inhibition of binding between CHO cells expressing hα4 and β1 integrins and Eu3+-hVCAM-1 D1D7-IgG. To be noted: for pKi: CHO cells expressing hα4 and β1 integrins, Eu3+-hVCAM-1 D1D7-IgG ligand, without HSA; for pIC50: in the presence of 3% human serum albumin (HSA final concentration 3%). The method in brief: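 Bound europium-labelled VCAM-1 D1D7-IgG on α4β1-expressing CHO cells was measured by time-resolved fluorescence after washing at 4 °C. Ligand (2 nM working dilution) and test compound, with or without 3% final HSA, were co-incubated for 1 h at room temperature in Mn²⁺-containing HEPES buffer, pH 7.5. IC50 came from % binding inhibition; Ki was calculated from ligand concentration and Scatchard Kd.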

The nature of series [1]: Solubility test in first and second liquid of the Japanese Pharmacopoeia. To be noted: Solubility.
Description: The solubilities of the substance under test in the first liquid (JP1, pH=1.2) of the Japanese Pharmacopoeia and the second liquid (JP2, pH=6.8) of the Japanese Pharmacopoeia, were evaluated.
[2] abbreviates: first liquid of the Japanese Pharmacopoeia (JP1), pH 1.2, simulated gastric fluid, First liquid of Japanese Pharmacopoeia (μg/mL), JP1, pH=1.2.
Setting [3] is: second liquid of the Japanese Pharmacopoeia (JP2), pH 6.8, aqueous buffer, Second liquid of Japanese Pharmacopoeia (μg/mL), JP2, pH=6.8.

T1 sequence (P13612 34-1032): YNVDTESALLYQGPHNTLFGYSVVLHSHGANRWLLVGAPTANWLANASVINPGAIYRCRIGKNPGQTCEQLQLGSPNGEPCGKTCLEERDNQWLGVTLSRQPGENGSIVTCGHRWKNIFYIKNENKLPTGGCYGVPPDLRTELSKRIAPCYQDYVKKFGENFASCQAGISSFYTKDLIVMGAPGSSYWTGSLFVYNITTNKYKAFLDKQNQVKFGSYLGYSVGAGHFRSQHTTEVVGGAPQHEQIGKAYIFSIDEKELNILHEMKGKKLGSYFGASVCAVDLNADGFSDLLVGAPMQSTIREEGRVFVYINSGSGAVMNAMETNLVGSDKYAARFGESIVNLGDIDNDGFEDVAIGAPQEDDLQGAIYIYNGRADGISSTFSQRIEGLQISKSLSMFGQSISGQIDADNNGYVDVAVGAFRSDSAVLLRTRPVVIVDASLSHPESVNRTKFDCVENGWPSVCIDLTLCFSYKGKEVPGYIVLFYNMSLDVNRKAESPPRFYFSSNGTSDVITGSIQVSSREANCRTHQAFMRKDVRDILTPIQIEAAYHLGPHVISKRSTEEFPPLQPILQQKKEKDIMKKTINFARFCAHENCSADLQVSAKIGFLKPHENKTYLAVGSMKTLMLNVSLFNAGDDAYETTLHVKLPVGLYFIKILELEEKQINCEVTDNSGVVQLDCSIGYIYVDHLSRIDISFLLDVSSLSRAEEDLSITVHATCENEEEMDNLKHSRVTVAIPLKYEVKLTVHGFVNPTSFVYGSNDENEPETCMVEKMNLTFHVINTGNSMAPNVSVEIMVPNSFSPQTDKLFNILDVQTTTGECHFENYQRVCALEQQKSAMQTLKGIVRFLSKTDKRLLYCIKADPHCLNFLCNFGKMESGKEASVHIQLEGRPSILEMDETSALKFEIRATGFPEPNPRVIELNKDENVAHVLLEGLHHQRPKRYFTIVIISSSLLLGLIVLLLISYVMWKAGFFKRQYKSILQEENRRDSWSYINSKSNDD
T1 sequence (P05556 21-798): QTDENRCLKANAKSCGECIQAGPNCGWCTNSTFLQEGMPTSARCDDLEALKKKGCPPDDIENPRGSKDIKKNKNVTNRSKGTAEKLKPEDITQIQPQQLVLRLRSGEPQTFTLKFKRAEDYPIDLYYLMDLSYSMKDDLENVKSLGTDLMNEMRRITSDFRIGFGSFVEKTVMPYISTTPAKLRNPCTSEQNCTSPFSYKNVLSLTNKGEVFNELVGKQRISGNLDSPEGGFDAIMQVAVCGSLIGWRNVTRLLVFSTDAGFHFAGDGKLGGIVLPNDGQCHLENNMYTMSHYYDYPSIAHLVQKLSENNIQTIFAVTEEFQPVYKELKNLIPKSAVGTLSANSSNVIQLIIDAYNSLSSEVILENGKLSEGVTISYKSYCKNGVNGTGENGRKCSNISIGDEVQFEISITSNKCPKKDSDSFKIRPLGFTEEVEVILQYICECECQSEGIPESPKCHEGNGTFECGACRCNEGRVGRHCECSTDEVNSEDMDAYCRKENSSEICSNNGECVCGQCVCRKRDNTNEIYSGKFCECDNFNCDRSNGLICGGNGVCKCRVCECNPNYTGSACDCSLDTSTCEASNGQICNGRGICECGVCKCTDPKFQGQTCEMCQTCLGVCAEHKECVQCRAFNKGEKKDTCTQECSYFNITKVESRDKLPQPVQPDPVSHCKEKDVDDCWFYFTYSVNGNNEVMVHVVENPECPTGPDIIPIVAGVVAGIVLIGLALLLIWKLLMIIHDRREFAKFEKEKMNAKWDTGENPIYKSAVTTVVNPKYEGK

For the compound `CO[C@H]1CN([C@H]2C[C@@H](CO[C@H]3CC[C@H](C(=O)O)CC3)N(C(=O)Cc3cc(Cl)c(NC(=O)c4coc5ccccc45)cc3Cl)C2)C[C@H]1OC` [Example 60, Trans-4-[1-[[4-[(benzo[b]furan-3-ylcarbonyl)amino]-2,5-dichlorophenyl]acetyl]-(4S)-(cis-3,4-dimethoxypyrrolidin-1-yl)-(2S)-pyrrolidinylmethoxy]cyclohexanecarboxylic acid], at hα4 and β1 integrins, the pKi was 8.10 and the pIC50 is 7.74. The compound also displayed a solubility in series [1] (setting [2]) of 1000 µg/mL (≈ 1420 µM). In addition, the solubility in series [1] (setting [3]) amounted to 1000 µg/mL (≈ 1420 µM).
Regarding `CO[C@H]1CN([C@H]2C[C@@H](CO[C@H]3CC[C@H](C(=O)O)CC3)N(C(=O)Cc3cc(Cl)c(NC(=O)c4coc5ccccc45)cc3F)C2)C[C@@H]1OC` [Example 53, Trans-4-[1-[[4-[(benzo[b]furan-3-ylcarbonyl)amino]-5-chloro-2-fluorophenyl]acetyl]-(4S)-[(3S,4S)-dimethoxypyrrolidin-1-yl]-(2S)-pyrrolidinylmethoxy]cyclohexanecarboxylic acid], on hα4 and β1 integrins, the pKi is 8.70 and the pIC50 was 7.96. This compound gave a solubility in series [1] (setting [2]) of 1000 µg/mL (≈ 1460 µM). Besides, the concentration in solution in series [1] (setting [3]) (solubility) was 1000 µg/mL (≈ 1460 µM).
Take `COCC1CCN([C@H]2C[C@@H](CO[C@H]3CC[C@H](C(=O)O)CC3)N(C(=O)Cc3cc(Cl)c(NC(=O)c4csc5ccccc45)cc3F)C2)CC1` [Example 99, Trans-4-[1-[[4-[(benzo[b]thiophen-3-ylcarbonyl)amino]-5-chloro-2-fluorophenyl]acetyl]-(4S)-[(4-methoxymethyl)piperidin-1-yl]-(2S)-pyrrolidinylmethoxy]cyclohexanecarboxylic acid]: on hα4 and β1 integrins, the pKi was 9.47 and the pIC50 is 8.42. This compound also gave a solubility in series [1] (setting [2]) above 2000 µg/mL. This compound yielded a solubility in series [1] (setting [3]) of 1020 µg/mL (≈ 1450 µM).
In the same order, the values of `O=C(Nc1cc(F)c(CC(=O)N2C[C@@H](N3CCC(N4CCOCC4)CC3)C[C@H]2CO[C@H]2CC[C@H](C(=O)O)CC2)cc1Cl)c1csc2ccccc12` [Example 110, Trans-4-[1-[[4-[(benzo[b]thiophen-3-ylcarbonyl)amino]-5-chloro-2-fluorophenyl]acetyl]-(4S)-[4-(morpholin-4-yl)piperidin-1-yl]-(2S)-pyrrolidinylmethoxy]cyclohexanecarboxylic acid] are 9.60, 7.52, above 2000 µg/mL and above 2000 µg/mL.
In the case of `CN(C)CC1CN([C@H]2C[C@@H](CO[C@H]3CC[C@H](C(=O)O)CC3)N(C(=O)Cc3cc(Cl)c(NC(=O)c4cn(C)c5ccccc45)cc3F)C2)C1` [Example 29, Trans-4-[1-[[5-chloro-2-fluoro-4-[(1-methyl-1H-indol-3-ylcarbonyl)amino]phenyl]acetyl]-(4S)-[3-(N,N-dimethylaminomethyl)azetidin-1-yl]-(2S)-pyrrolidinylmethoxy]cyclohexane carboxylic acid], on hα4 and β1 integrins, the pKi was 8.38 and the pIC50 was 7.92. For the same compound, the solubility in series [1] (setting [2]) was 1000 µg/mL (≈ 1470 µM). In series [1] (setting [3]), this compound registered a solubility of 1000 µg/mL (≈ 1470 µM).
`CC(C)N1CCN([C@H]2C[C@@H](CO[C@H]3CC[C@H](C(=O)O)CC3)N(C(=O)Cc3cc(Cl)c(NC(=O)c4cn(C)c5ccccc45)cc3Cl)C2)CC1` [Example 113, Trans-4-[1-[[2,5-dichloro-4-[(1-methyl-1H-indol-3-ylcarbonyl)amino]phenyl]acetyl]-(4S)-(4-isopropylpiperazin-1-yl)-(2S)-pyrrolidinylmethoxy]cyclohexanecarboxylic acid]: the pKi on hα4 and β1 integrins was 8.55. Further, the pIC50 at hα4 and β1 integrins is 8.02. In addition, the solubility in series [1] (setting [2]) and in series [1] (setting [3]) was 1000 µg/mL (≈ 1400 µM) throughout.

Values taken from US8129366B2, “VLA-4 inhibitory drug” (Daiichi Sankyo Company, Limited, priority 2005, dated 2012).
